We go through one compound from patent US6680025B2, “Device and method for photoactivation” (Cerus Corporation, priority 1989, dated 2004).

Format in all cases: biochemical
Assay [1] has as its system HIV 115-mer. Put plainly: Effect of unirradiated isopsoralen on PCR. To be noted: for Counts (CPM) of PCR product: 30 cycles, 0 μg/ml gave 42200. As to the method:
To systematically evaluate the effect of the presence of increasing concentrations of isopsoralen on PCR, AMDMIP (0, 100, 200, 400 μg/ml) was added to 107 copies of HIV 115-mer as template. PCR was then carried out for 30 cycles in the presence of α-^32P-dCTP. The PCR product was run on denaturing polyacrylamide gel and autoradiographed. The bands were thereafter cut and counted.

The subject of assay [2] is HIV 115-mer. In words: Post-amplification sterilization, isopsoralen present during amplification (Example 55). To be noted: AMDMIP 400 μg/ml, 30 cycles. The source says:
For the purposes of this determination, the steps of the following experiment include (see FIG. 42): a) preparing template, b) providing template, c) providing isopsoralen, d) providing PCR reagents, e) providing polymerase, f) mixing isopsoralen, PCR reagents, template, and polymerase to initiate PCR, g) cycling to provide PCR product, h) irradiating, i) carrying over of PCR product into new tubes at specific copy numbers, and j) amplifying in a subsequent PCR.
Step a): Template Preparation. HIV 115-mer was used as template.
Step b) Providing Template. For the reaction, template (equivalent to approximately 107 copies) in buffer was provided for the reaction vessel. Step c) Providing Isopsoralen. AMDMIP (400 μg/ml) was provided as the isopsoralen. This is a higher concentration of AMDMIP than used in the previous example.
Step d), e), f) and g). PCR reagents and polymerase were provided, mixed and cycled as described above. This time, however, isopsoralen is part of the pre-amplification mixture.
Step h) Irradiation. Irradiation was performed on the CE-III device for 15 minutes at 25° C.
Step i) Carrying over of PCR product. Aliquots of PCR product were added into six new reaction tubes—two tubes for each dilution. Dilutions to yield 10^7, 10^5 and 10^3 copies were made. […]

Assay [3] has as its system HIV 115-mer PCR product carryover. In words: Post-amplification sterilization, isopsoralen added after amplification (Example 54). To be noted: for sterilization of carryover: AMDMIP 100 μg/ml, PTI 15 minutes, 10^6 copies. The source says: In this embodiment, the method of sterilization comprises: 1) providing PCR reagents, 2) providing template, 3) providing polymerase, 4) mixing PCR reagents, template, and polymerase to initiate PCR, 5) cycling to provide PCR product, 6) providing isopsoralen, 7) adding isopsoralen to PCR product, and 8) irradiating PCR product.
For the purposes of this determination, the steps of the following experiment include (see FIG. 40): a) preparing template, b) providing template, c) providing PCR reagents, d) providing polymerase, e) mixing PCR reagents, template, and polymerase to initiate PCR, f) cycling to provide PCR product, g) carrying over of PCR product into new tubes, h) providing isopsoralen, i) adding isopsoralen to the carryover, j) irradiating, k) addition of new PCR reagents, and 1) subsequent PCR.
Steps a), b), c), d), e), and f). PCR product was provided as described earlier.
Step g) Carrying over of PCR product. Aliquots of PCR product were added into new reaction tubes at 10^6 copies per tube.
Step h) Providing Isopsoralen. AMDMIP was synthesized as described and diluted.
Step i) Addition of Isopsoralen ANDDMIP (100 μg/ml, approximately 10^−4 M) was added reaction vessels containing carryover.
Step i) Irradiation. Irradiation was performed on the PTI device to avoid photoproduct. Three of the new reaction tubes were irradiated while the others were left unirradiated as controls. Irradiation was for 15 minutes at RT as above.
Step k) PCR Reagents and Tag Polymerase Were Added to Appropriate Concentrations. The final volume was increased two fold such that AMDMIP photoproducts were at 50 μg/ml.
Step l) Subsequent PCR. Amplification was performed, in closed reaction vessels using primer pair SK-38/39 for 20, 25 or 30 cycles, using the temperature profile for cycling described above in the presence of α-^32P-dCTP.

As for `Cc1oc2ccc3c(C)cc(=O)oc3c2c1CN` [AMDMIP, 4′-Aminomethyl-4,5′-dimethylisopsoralen], the “concentration compatible with the PCR system” value in the assay on HIV 115-mer [1] (HIV 115-mer system) was “up to 400 μg/ml”. Moreover, the figures for the “Counts (CPM) of PCR product” value with HIV 115-mer [1] (unirradiated AMDMIP 100 μg/ml), with HIV 115-mer [1] (unirradiated AMDMIP 200 μg/ml) and in the assay on HIV 115-mer [1] (unirradiated AMDMIP 400 μg/ml) were 77200 CPM, 77500 CPM and 69400 CPM, respectively. Further, in the assay on HIV 115-mer [2] (CE-III 15 minutes at 25° C., 10^7, 10^5, 10^3 copies carried over), the post-amplification sterilization result is listed as “complete, post-amplification sterilization”. The “reamplification of carryover with AMDMIP, not light-treated” value in the assay with HIV 115-mer [2] is given as “show amplification”; in assay [3] (20, 25, 30 cycles), “show amplification”. The results for the sterilization of carryover entry in assay [3] (20 cycles), in assay [3] (25 cycles) and in assay [3] (30 cycles) were “sterilization appears to be complete”, “reduced relative to controls” and “no significant sterilization is observed”, respectively.
